Earlier results in patent US11686722B2, “Compositions and methods to detect molecules in a sample” (Infusense Corp., priority 2016, dated 2023).
Like-named read-outs stand apart in the source and are kept apart here.

Assays:
[1] = neutral pH, shake-flask methodology
[2] = neutral pH, reverse-phase HPLC estimation

Row | Structure (SMILES) | time until metabolite appears in the urine, typical (following a dose of THC, urine) [h] | time until metabolite appears in the urine, longest (following a dose of THC, urine, can take as long as) [h] | n-octanol/water partition coefficient (KOW) [1] | clearance half-life (in vivo) | detectability in urine (urine) | n-octanol/water partition coefficient (KOW) [2]
1 | CCCCCc1cc(O)c2c(c1)OC(C)(C)C1CCC(C(=O)O)=CC21 (stereo not drawn) [11-nor-9-carboxy-THC, 11-nor-9-carboxy-tetrahydrocannabinol] | ≤ 1 | ≤ 4 |  |  |  | 
2 | CCCCCc1cc(O)c2c(c1)OC(C)(C)[C@@H]1CCC(C)=C[C@@H]21 [THC, Δ^9-tetrahydrocannabinol] |  |  | 6000 | less than 30 minutes | not detectable in urine | 9,440,000
